The values that follow come from patent US7115612B2, “Arylsulfonamides as antiviral agents” (Bayer Aktiengesellschaft, priority 2001, dated 2006).

As usually defined, the EC50 is the concentration needed to bring the measured effect to its halfway point. Read a high EC50 as a need for much substance. A word on the CC50: it is the concentration at which the toxic effect on the cells reaches its halfway point. Usually melting point stands for the temperature of the solid-liquid transition.

One series relates to HCMV. Description: Anti-HCMV cytopathogenicity test. Type of series: cell-based, human cytomegalovirus. The note with it: for EC50: Human betaherpesvirus 5, 144 h, inhibition of CPE by 50% in HCMV-infected HELF cells, M.O.I. 0.001–0.002, 6 days; for SI HCMV: selectivity index = CC50 (HELF)/EC50 (HCMV). How it is done: (§1) Anti-HCMV (Anti-Human Cytomegalovirus) and anti-MCMV (Anti-Murine Cytomegalovirus) cytopathogenicity tests: The test compounds were employed as 50 millimolar (mM) solutions in dimethyl sulphoxide (DMSO). Ganciclovir, foscarnet and cidofovir served as reference compounds. Following the addition of in each case 2 μl of the 50, 5, 0.5 and 0.05 mM DMSO stock solutions to in each case 98μ of cell culture medium in row […], in duplicate determinations, 1:2 dilutions with in each case 50 μl of medium were prepared up to row 11 of the 96-well plate. The wells in rows 1 and 12 each contained 50 μl of medium. 150 μl of a suspension of 1×10^4 cells (human lung fibroblasts [HELF]) (row 1=cell control) or, in rows 2-12, a mixture of HCMV-infected and non-infected HELF cells (M.O.I.=0.001-0.002), i.e. 1-2 infected cells per 1000 non-infected cells, were then pipetted into each of the wells. Row 12 (without substance) served as virus control. The final test concentrations were 250-0.0005 μM. The plates were incubated at 37° C./5% CO2 for 6 days, i.e. until all cells in the virus controls had been infected (100% cytopathogenic effect [CPE]). The wells were then fixed and stained by adding a mixture of Formalin and Giemsa Stain (30 minutes), washed with doubly distilled water and dried in a drying cabinet at 50° C. The plates were then evaluated visually using an overhead microscope (plaque multiplier from Technomara). From the test plates, the following data were determined: EC50 (HCMV)=substance concentration in μM which inhibits the CPE (cytopathic effect) by 50% compared to the untreated virus control; SI (selectivity index)=CC50 (HELF)/EC50 (HCMV).
A general note: Protection from cytopathic effect is a common read-out in antiviral testing.

A short description of series [1]: Cytotoxicity on HELF cells in the anti-HCMV cytopathogenicity test. The note with it: human lung fibroblasts (HELF cells), 6 days incubation, visual evaluation. The series is classed as cell-based. How it is done:
as §1, with “The” for “Anti-HCMV (Anti-Human Cytomegalovirus) and anti-MCMV (Anti-Murine Cytomegalovirus) cytopathogenicity tests: The”, “CC50 (HELF)=substance” for “EC50 (HCMV)=substance”, “at which,” for “which inhibits the CPE (cytopathic effect) by 50%”, “cell control, no visible cytostatic effects on the cells were noticeable;” for “virus control; SI (selectivity index)=CC50 (HELF)/EC50 (HCMV).”

The test system of another series is MCMV. Description: Anti-MCMV cytopathogenicity test. The series is classed as cell-based, murine cytomegalovirus. The note with it: for EC50: Murid betaherpesvirus 1, 120 h, MCMV-infected 3T3 mouse cells, M.O.I. 0.05–0.1, 5 days; for SI MCMV: selectivity index, 3T3 CC50 / MCMV EC50. The method, then:
Anti-HCMV (Anti-Human Cytomegalovirus) and anti-MCMV (Anti-Murine Cytomegalovirus) cytopathogenicity tests:
(§2) The test compounds were employed as 50 millimolar (mM) solutions in dimethyl sulphoxide (DMSO). Ganciclovir, foscarnet and cidofovir served as reference compounds. Following the addition of in each case 2 μl of the 50, 5, 0.5 and 0.05 mM DMSO stock solutions to in each case 98μ of cell culture medium in row 2 A-H, in duplicate determinations, 1:2 dilutions with in each case 50 μl of medium were prepared up to row 11 of the 96-well plate. The wells in rows 1 and 12 each contained 50 μl of medium. 150 μl of a suspension of 1×10^4 cells (human lung fibroblasts [HELF]) (row 1=cell control) or, in rows 2–12, a mixture of HCMV-infected and non-infected HELF cells (M.O.I.=0.001–0.002), i.e. 1–2 infected cells per 1000 non-infected cells, were then pipetted into each of the wells. Row 12 (without substance) served as virus control. The final test concentrations were 250–0.0005 μM. The plates were incubated at 37° C./5% CO2 for 6 days, i.e. until all cells in the virus controls had been infected (100% cytopathogenic effect [CPE]). The wells were then fixed and stained by adding a mixture of Formalin and Giemsa Stain (30 minutes), washed with doubly distilled water and dried in a drying cabinet at 50° C. The plates were then evaluated visually using an overhead microscope (plaque multiplier from Technomara).
(§3) Compared to the process described above for HCMV, the anti-MCMV test was carried out with the following changes: a cell-free virus suspension was mixed with a concentrated cell suspension (3T3 mouse cells) and incubated for 15 minutes for adsorption of the viruses, and the suspension was then diluted with medium to 1.3×10^5 cells/ml with a final multiplicity of infection (M.O.I.) of from 0.05–0.1, and in each case 150 μl were dispensed into the wells. The incubation time was 5 days.

A short description of series [2]: Cytotoxicity on 3T3 cells in the anti-MCMV cytopathogenicity test. The note with it: mouse, 3T3 mouse cells, 5 days incubation. Type of series: cell-based. The method, then: as §2
CC50 (HELF)=substance concentration in μM at which, compared to the untreated cell control, no visible cytostatic effects on the cells were noticeable;
as §3

Regarding `CC(=O)Nc1cccc(-c2nc(-c3ccc(S(=O)(=O)Nc4cccc(NC(=O)C5(C)CC5)c4)cc3)no2)n1` [Example 132, N-(3-{[(4-{5-[6-(Acetylamino)-2-pyridinyl]-1,2,4-oxadiazol-3-yl}phenyl)sulphonyl]-amino}phenyl)-1-methylcyclopropanecarboxamide], in the series with HCMV, a half-maximal effect (EC50) was put at 6 nM and the “SI HCMV” value stood at 7833. The CC50 at 6 days in series [1] is 47000 nM. In the series with MCMV, a half-maximal response (EC50) required 3 nM and the “SI MCMV” value is 767. Half-maximal cytotoxicity in series [2] (CC50 at 5 days) was put at 2300 nM.

Regarding `CN(C)c1cccc(-c2nc(-c3ccc(S(=O)(=O)Nc4cccc(NC(=O)C5(C)CC5)c4)cc3)no2)c1` [Example 2, N-(3-{[(4-{5-[3-(Dimethylamino)phenyl]-1,2,4-oxadiazol-3-yl}phenyl)sulphonyl]-amino}phenyl)-1-methylcyclopropanecarboxamide], in the series on HCMV, the EC50 is 50 nM and the “SI HCMV” value is recorded as under 320. In addition, the CC50 at 6 days in series [1] was under 16000 nM. Also, in the series with MCMV, the midpoint of the response, the EC50, lay at 45 nM and the “SI MCMV” value was determined as 20. The same compound returned a CC50 at 5 days in series [2] of 900 nM.

Consider `CC1(C(=O)Nc2cccc(NS(=O)(=O)c3ccc(-c4noc(-c5ccccn5)n4)cc3)c2)CC1` [Example 3, 1-Methyl-N-{3-[({4-[5-(2-pyridinyl)-1,2,4-oxadiazol-3-yl]phenyl}sulphonyl)-amino]phenyl}cyclopropanecarboxamide], for which the melting point worked out at 202 °C. In the series on HCMV, the EC50 is 18 nM and the “SI HCMV” value is listed as under 7778. The CC50 at 6 days in series [1] was under 140000 nM. Also, in the series with MCMV, the EC50 worked out at 8 nM and the “SI MCMV” value turned out to be 2875. In series [2], this compound gave a CC50 at 5 days of 23000 nM.

As to `Cc1cccc(-c2nc(-c3ccc(S(=O)(=O)Nc4cccc(NC(=O)C5(C)CC5)c4)cc3)no2)n1` [Example 5, 1-Methyl-N-{3-[({4-[5-(6-methyl-2-pyridinyl)-1,2,4-oxadiazol-3-yl]phenyl}-sulphonyl)amino]phenyl}cyclopropanecarboxamide], in the series on HCMV, a half-maximal response (EC50) required 16 nM and the “SI HCMV” value is over 1000. In series [1], the CC50 at 6 days is over 16000 nM. In the series with MCMV, the response was half-maximal at 14 nM (EC50) and the “SI MCMV” value is listed as over 2214. The compound also returned a CC50 at 5 days in series [2] of over 31000 nM.

Take `CC1(C(=O)Nc2cccc(NS(=O)(=O)c3ccc(-c4noc(-c5cccc(N)n5)n4)cc3)c2)CC1` [Example 134, N-{3-[({4-[5-(6-Amino-2-pyridinyl)-1,2,4-oxadiazol-3-yl]phenyl}sulphonyl)amino]-phenyl}-1-methylcyclopropanecarboxamide]: in the series on HCMV, the response was half-maximal at 9 nM (EC50) and the “SI HCMV” value worked out at 10444. The compound also came in with a CC50 at 6 days in series [1] of 94000 nM. Further, in the series with MCMV, it took 4.7 nM to reach a half-maximal effect (EC50) and the “SI MCMV” value is 1617. In addition, the CC50 at 5 days in series [2] amounted to 8000 nM.

As for `Cc1cc(-c2nc(-c3ccc(S(=O)(=O)Nc4cccc(NC(=O)C5(C)CC5)c4)cc3)no2)nn1C` [Example 8, N-{3-[({4-[5-(1,5-Dimethyl-1H-pyrazol-3-yl)-1,2,4-oxadiazol-3-yl]phenyl}-sulphonyl)amino]phenyl}-1-methylcyclopropanecarboxamide], in the series on HCMV, a half-maximal effect (EC50) was put at 20 nM and the “SI HCMV” value is over 110. This compound also showed a CC50 at 6 days in series [1] of over 2200 nM. In the series with MCMV, a half-maximal response (EC50) required 24 nM and the “SI MCMV” value is over 163. The compound further returned a CC50 at 5 days in series [2] of over 3900 nM.

With `Cc1nc(-c2nc(-c3ccc(S(=O)(=O)Nc4cccc(NC(=O)C5(C)CC5)c4)cc3)no2)cs1` [Example 11, 1-Methyl-N-{3-[({4-[5-(2-methyl-1,3-thiazol-4-yl)-1,2,4-oxadiazol-3-yl]phenyl}-sulphonyl)amino]phenyl}cyclopropanecarboxamide], in the series on HCMV, a half-maximal response (EC50) required 15 nM and the “SI HCMV” value is given as over 1040. The CC50 at 6 days in series [1] is over 16000 nM. In addition, in the series with MCMV, the response was half-maximal at 2 nM (EC50) and the “SI MCMV” value is reported as over 5850. In addition, the CC50 at 5 days in series [2] was over 12000 nM.
